Measurements as given in patent publication US4232014A, “Aminoalkylindans and use as hypotensive agents” (Marion Laboratories, Inc., priority 1979, dated 1980).

Experiments:
[1] = Acute toxicity determination in mice (ALD50, ip); type: in vivo, female Swiss-Webster mice; settings: in vivo, mouse, ip, 24 hours after administration
Protocol: (§1) Biological Methods--Acute toxicity determinations were performed in female Swiss-Webster mice, 15-24 g. Compounds were administered in aqueous solutions or as suspensions in 1% tragacanth by the intraperitoneal route to groups of three or more mice.

Mice = test: Acute toxicity determination in mice (ALD50, ip); type: in vivo, female Swiss-Webster mice; settings: in words, compared with the other compounds of the series
Protocol: as §1

[2] = test system: Desoxycorticosterone Hypertensive Rats; test: Cardiovascular activity (blood pressure and heart rate) in desoxycorticosterone hypertensive rats; type: in vivo, male Charles River rats; settings: 24 hr
Protocol: The indirect measurements of blood pressure and heart rate were determined in male Charles River rats made hypertensive (systolic blood pressure >159 mm Hg) by subcutaneously implanting a wax-formulated pellet containing 10 mg of desoxycorticosterone acetate. Systolic blood pressure was measured in the caudal arteries of prewarmed (40° C.), unanesthetized, restrained animals by a pneumatic pulse transducer placed distal to an automated tail pressure cuff and was recorded on a physiograph. Heart rate was determined from the amplified pulse waves recorded during the blood pressure measurements. Prior to the actual experiments, animals were accustomed to the measurement handling procedure several times during the preceding weeks.
Control systolic blood pressure and heart rates were determined in a group of usually six hypertensive rats on each day. A compound for evaluation was administered by intraperitoneal injection either in solution or as a suspension at 24 hr. intervals following injection. Mean values of the group for these parameters at a particular measurement period were calculated, and then the mean difference from control, along with its associated standard error, was calculated for each period. The statistical significance of the changes produced by a compound was tested by an analysis of variance and the Newman-Keuls a posteriori test when F was significant. A probability level of 0.05 or less was accepted as a significant change.
All compounds synthesized in this series, except V, were tested at a dosage level of 100 mg/kg. […] Another group of hypertensive rats was injected with 0.9% NaCl in a dose of 1 ml/kg. The latter group was included as a placebo group for the entire study.

[3] = test system: Desoxycorticosterone Hypertensive Rats; test: as above; type: in vivo, male Charles River rats
animals = test: Anti-hypertensive effect when administered to animals parenterally or orally; type: in vivo; settings: in words
[4] = 10 mg/kg ip, solution in distilled water, 1 hr
[5] = 10 mg/kg ip, solution in distilled water, 2 hr
[6] = 10 mg/kg ip, solution in distilled water, 4 hr
[7] = 10 mg/kg ip, solution in distilled water, 24 hr
[8] = 25 mg/kg ip, solution in distilled water, 4 hr
[9] = 100 mg/kg ip, suspension in 1% tragacanth
[10] = 100 mg/kg ip, suspension in 1% tragacanth, 1 hr
[11] = 100 mg/kg ip, suspension in 1% tragacanth, 2 hr
[12] = 100 mg/kg ip, suspension in 1% tragacanth, 4 hr
[13] = 50 mg/kg ip, suspension in 1% tragacanth, 1 hr
[14] = 50 mg/kg ip, suspension in 1% tragacanth, 2 hr
[15] = 50 mg/kg ip, suspension in 1% tragacanth, 4 hr
[16] = 50 mg/kg ip, suspension in 1% tragacanth, 24 hr

Cc1cc2c(cc1CCN)CCC2.Cl [Compound V, 5-Aminoethyl-6-methylindan HCl]
LD50 at 24 h ([1]; solution in distilled water): 79 to 89 mg/kg
relative toxicity in the mouse (Mice): relatively more toxic in the mouse
Mean change in heart rate from control ± SE ([2]; 25 mg/kg ip, solution in distilled water): -26 ± 14 beats per minute
Mean change in heart rate from control ± SE [3, 4]: +32 ± 17 beats per minute
Mean change in systolic blood pressure from control ± SE [3, 4]: -24 ± 8 mm Hg
Mean change in heart rate from control ± SE [3, 5]: +34 ± 14 beats per minute
Mean change in systolic blood pressure from control ± SE [3, 5]: -24 ± 4 mm Hg
Mean change in heart rate from control ± SE [3, 6]: +25 ± 11 beats per minute
Mean change in systolic blood pressure from control ± SE [3, 6]: -15 ± 5 mm Hg
Mean change in heart rate from control ± SE [3, 7]: -4 ± 11 beats per minute
Mean change in systolic blood pressure from control ± SE [3, 7]: -6 ± 4 mm Hg
Mean change in heart rate from control ± SE [3, 8]: +20 ± 21 beats per minute
Mean change in systolic blood pressure from control ± SE [3, 8]: -18 ± 4 mm Hg
Mean change in systolic blood pressure from control ± SE ([3]; 25 mg/kg ip, solution in distilled water, 24 hr): -11 ± 2 mm Hg

COc1cc2c(cc1CCNC(=O)c1ccccc1)CCC2 [I, 5-Benzoylaminoethyl-6-methoxyindan]
LD50 at 24 h ([1]; suspension in 1% tragacanth): > 1000 mg/kg
Mean change in heart rate from control ± SE [2, 9]: -67 ± 22 beats per minute
Mean change in systolic blood pressure from control ± SE [2, 9]: -13 ± 4 mm Hg
Mean change in heart rate from control ± SE [3, 10]: -20 ± 23 beats per minute
Mean change in systolic blood pressure from control ± SE [3, 10]: -18 ± 8 mm Hg
Mean change in heart rate from control ± SE [3, 11]: +9 ± 30 beats per minute
Mean change in systolic blood pressure from control ± SE [3, 11]: -24 ± 7 mm Hg
Mean change in heart rate from control ± SE [3, 12]: -14 ± 18 beats per minute
Mean change in systolic blood pressure from control ± SE [3, 12]: -12 ± 6 mm Hg

COc1ccc(CC(=O)NCCc2cc3c(cc2C)CCC3)cc1OC [VII, N-(3,4-Dimethoxyphenylacetyl)-5-aminoethyl-6-methylindan]
LD50 at 24 h ([1]; suspension in 1% tragacanth): > 1000 mg/kg
Mean change in heart rate from control ± SE [2, 9]: +22 ± 12 beats per minute
Mean change in systolic blood pressure from control ± SE [2, 9]: -3 ± 7 mm Hg
Mean change in heart rate from control ± SE [3, 10]: +43 ± 10 beats per minute
Mean change in systolic blood pressure from control ± SE [3, 10]: -2 ± 6 mm Hg
Mean change in heart rate from control ± SE [3, 11]: +47 ± 12 beats per minute
Mean change in systolic blood pressure from control ± SE [3, 11]: -4 ± 9 mm Hg
Mean change in heart rate from control ± SE [3, 12]: +37 ± 15 beats per minute
Mean change in systolic blood pressure from control ± SE [3, 12]: +2 ± 5 mm Hg

COc1cc2c(cc1CCNC(=O)Cc1ccc(OC)c(OC)c1)CCC2 [IV, 5-(3,4-Dimethoxyphenylacetyl)aminoethyl-6-methoxyindan]
LD50 at 24 h ([1]; suspension in 1% tragacanth): 500 to 1000 mg/kg
Mean change in heart rate from control ± SE [2, 9]: -27 ± 2 beats per minute
Mean change in systolic blood pressure from control ± SE [2, 9]: -19 ± 4 mm Hg
Mean change in heart rate from control ± SE [3, 10]: +23 ± 29 beats per minute
Mean change in systolic blood pressure from control ± SE [3, 10]: -10 ± 4 mm Hg
Mean change in heart rate from control ± SE [3, 11]: +57 ± 31 beats per minute
Mean change in systolic blood pressure from control ± SE [3, 11]: -10 ± 2 mm Hg
Mean change in heart rate from control ± SE [3, 12]: +14 ± 12 beats per minute
Mean change in systolic blood pressure from control ± SE [3, 12]: -19 ± 3 mm Hg

Cc1cc2c(cc1CCN)CCC2 [5-aminoethyl-6-methylindan]
hypotensive properties (animals): has hypotensive properties
anti-hypertensive effect (animals; as base or acid addition salt, animals, parenterally or orally): exert an anti-hypertensive effect

COc1ccc(CNCCc2cc3c(cc2C)CCC3)cc1OC.Cl [VIII, N-(3,4-Dimethoxybenzyl)-5-aminoethyl-6-methylindan hydrochloride]
LD50 at 24 h ([1]; suspension in 1% tragacanth): 140 to 178 mg/kg
Mean change in heart rate from control ± SE [2, 9]: -14 ± 10 beats per minute
Mean change in systolic blood pressure from control ± SE [2, 9]: -17 ± 2 mm Hg
Mean change in heart rate from control ± SE [3, 10]: -55 ± 17 beats per minute
Mean change in systolic blood pressure from control ± SE [3, 10]: -58 ± 4 mm Hg
Mean change in heart rate from control ± SE [3, 11]: 0 ± 14 beats per minute
Mean change in systolic blood pressure from control ± SE [3, 11]: -60 ± 7 mm Hg
Mean change in heart rate from control ± SE [3, 12]: +4 ± 8 beats per minute
Mean change in systolic blood pressure from control ± SE [3, 12]: -47 ± 2 mm Hg

COc1cc2c(cc1CCNC(=O)c1cc(OC)c(OC)c(OC)c1)CCC2 [II, 5-(3,4,5-Trimethoxybenzoyl)aminoethyl-6-methoxyindan]
LD50 at 24 h ([1]; suspension in 1% tragacanth): > 1000 mg/kg
Mean change in heart rate from control ± SE [2, 9]: -4 ± 10 beats per minute
Mean change in systolic blood pressure from control ± SE [2, 9]: -16 ± 4 mm Hg
Mean change in heart rate from control ± SE [3, 10]: +23 ± 28 beats per minute
Mean change in systolic blood pressure from control ± SE [3, 10]: -27 ± 8 mm Hg
Mean change in heart rate from control ± SE [3, 11]: +10 ± 28 beats per minute
Mean change in systolic blood pressure from control ± SE [3, 11]: -35 ± 13 mm Hg
Mean change in heart rate from control ± SE [3, 12]: +47 ± 29 beats per minute
Mean change in systolic blood pressure from control ± SE [3, 12]: -12 ± 8 mm Hg

Cc1cc2c(cc1CCNC(=O)Cc1ccccc1)CCC2 [VI]
LD50 at 24 h ([1]; suspension in 1% tragacanth): > 1000 mg/kg
Mean change in heart rate from control ± SE [2, 9]: +2 ± 17 beats per minute
Mean change in systolic blood pressure from control ± SE [2, 9]: -3 ± 10 mm Hg
Mean change in heart rate from control ± SE [3, 10]: +17 ± 17 beats per minute
Mean change in systolic blood pressure from control ± SE [3, 10]: -7 ± 7 mm Hg
Mean change in heart rate from control ± SE [3, 11]: +24 ± 11 beats per minute
Mean change in systolic blood pressure from control ± SE [3, 11]: -2 ± 6 mm Hg
Mean change in heart rate from control ± SE [3, 12]: +23 ± 13 beats per minute
Mean change in systolic blood pressure from control ± SE [3, 12]: -1 ± 7 mm Hg

C[C@](N)(Cc1ccc(O)c(O)c1)C(=O)O [Methyldopa, reference compound]
Mean change in heart rate from control ± SE [3, 13]: +106 ± 26 beats per minute
Mean change in systolic blood pressure from control ± SE [3, 13]: -31 ± 4 mm Hg
Mean change in heart rate from control ± SE [3, 14]: +104 ± 28 beats per minute
Mean change in systolic blood pressure from control ± SE [3, 14]: -50 ±4 mm Hg
Mean change in heart rate from control ± SE [3, 15]: +31 ± 39 beats per minute
Mean change in systolic blood pressure from control ± SE [3, 15]: -48 ± 6 mm Hg
Mean change in heart rate from control ± SE [3, 16]: -19 ± 12 beats per minute
Mean change in systolic blood pressure from control ± SE [3, 16]: -16 ± 5 mm Hg
change in mean systolic blood pressure from control levels ([3]; in words, hypertensive rats, reference standards): significant depressions in mean systolic blood pressure from control levels

COc1cc2c(cc1CCNC(=O)Cc1ccccc1)CCC2 [III, 5-Phenylacetylaminoethyl-6-methoxyindan]
LD50 at 24 h ([1]; suspension in 1% tragacanth): 1000 to 1500 mg/kg
Mean change in heart rate from control ± SE [2, 9]: +61 ± 12 beats per minute
Mean change in systolic blood pressure from control ± SE [2, 9]: -13 ± 4 mm Hg
Mean change in heart rate from control ± SE [3, 10]: +13 ± 12 beats per minute
Mean change in systolic blood pressure from control ± SE [3, 10]: -32 ± 7 mm Hg
Mean change in heart rate from control ± SE [3, 11]: +54 ± 25 beats per minute
Mean change in systolic blood pressure from control ± SE [3, 11]: -24 ± 5 mm Hg
Mean change in heart rate from control ± SE [3, 12]: +19 ± 21 beats per minute
Mean change in systolic blood pressure from control ± SE [3, 12]: -21 ± 4 mm Hg
